Experimental data from US10328022B2, “Formulations and methods for vaginal delivery of antiprogestins” (REPROS THERAPEUTICS INC., priority 2012, dated 2019).

How the values were obtained:
[1] = tested on: New Zealand White rabbits; test: Cumulative vaginal mucous membrane irritancy, 10 daily intravaginal doses; format: in vivo, rabbit
Protocol: Pullulan capsules (Capsugel NPcaps®, size 0) comprising CDB-4124 were administered once daily for 10 consecutive days intravaginally to 10 healthy virgin female New Zealand White rabbits in order to determine the cumulative vaginal mucous membrane irritancy potential and to obtain plasma samples for pharmacokinetic analysis. Five rabbits were assigned to each of two groups, the first dosed with vehicle control (pullulan capsules with 0.5 ml PEG 1000 fill) introduced into the upper vaginal vault of each rabbit using a syringe applicator (Group 1), the second with CDB-4124 (pullulan capsules with 12 mg CDB-4124 in 0.5 ml PEG 1000)(Group 2). The external vaginal mucosa of each animal was examined for erythema, edema and discharge prior to the initial dose, immediately prior to each treatment and prior to sacrifice. All animals were examined for gross pathology.

[2] = Pharmacokinetics of vaginal pullulan capsules with 12 mg CDB-4124 in women; format: in vivo, human
Protocol: (§1) Capsugel NPcaps® were filled with the excipient fill formulations described above with 12 mg CDB-4124 (telapristone acetate) and administered vaginally to human females with uterine fibroids once per day for a period of 2 weeks to determine the length of time required to reach steady state and overall systemic exposure of the parent compound (CDB-4124) and the primary metabolite (CDB-4453). The capsules were administered using a commercially available vaginal applicator modified by reversing the insert (see FIG. 5). The unmodified applicator comprises a barrel and plunger with the barrel having a relatively wide opening on one end and a relatively narrow opening on the other end. The applicator is designed such that the drug is placed in the end with the larger diameter opening (entrance end), the applicator is inserted into the vagina and the plunger is used to push the drug out the barrel and into the vagina. For insertion of the filled NPcaps, the shell end of the capsule (having a […] diameter) was placed into the narrow opening in the barrel, leaving the cap exposed. […] Pharmacokinetic data was then obtained from patients.

[3] = tested on: human females with uterine fibroids; test: Vaginal administration of pullulan capsules with 12 mg CDB-4124: menses and fibroid symptoms; format: in vivo
Protocol: as §1
(§2) In a previous oral study, doses of 1, 3, 6, 9 and 12 mg of CDB-4124 were administered for a period of 10 weeks. […] Cessation of menses directly correlates to efficacy of an oral dose in both uterine fibroids and endometriosis. […] Given the overall low exposure of the 12 mg dose, in those women that continued to menstruate, further improvements in reduction of symptoms are expected with longer exposure to the drug. In efficacy studies in which CDB-4124 was administered orally, women experienced a nearly 50% reduction in mean fibroid size at a 25 mg dose. When those women were then escalated to a 50 mg oral dose for an additional four months, fibroid size was reduced to approximately 25% of the initial volume. Based on the assessment of fibroid symptoms as scored by UFSQOL, women on oral CDB-4124 were, in general, symptom free.

[4] = tested on: human females with uterine fibroids; test: Previous oral study of CDB-4124, 1, 3, 6, 9 and 12 mg for 10 weeks; format: in vivo
Protocol: as §2

uterine fibroids = test: Oral efficacy studies of CDB-4124, 25 mg then 50 mg; format: in vivo, human
Protocol: as §2

[5] = 12 mg intravaginally once daily for 10 days
[6] = 12 mg vaginal, pair-wise comparison of 6 women

For COCC(=O)[C@@]1(OC(C)=O)CC[C@H]2[C@@H]3CCC4=CC(=O)CCC4=C3[C@@H](c3ccc(N(C)C)cc3)C[C@@]21C [CDB-4124, 21-methoxy-17α-acetoxy-11β-(4 N,N-dimethylaminophenyl)-19-norpregna-4,9-diene-3,20-dione], the “External vaginal mucosa: erythema, edema” value ([1]; 12 mg CDB-4124 in pullulan capsule intravaginally once daily for 10 days) was “⅖ rabbits showed very slight erythema and/or edema on 4 occasions”, the “Gross findings in ovaries, uterus, three sections of the vagina” value [1, 5] was “No gross findings” and the Histopathological findings [1, 5] was “nor were any histopathological findings observed”. For the same compound, the Irritation index [1, 5] was “none”, the “Drug peak after steady state” value ([2]; 12 mg vaginal once per day, women) was “no obvious drug peak” and the “Systemic exposure relative to an equivalent oral dose, based on AUC” value ([2]; 12 mg vaginal versus 12 mg oral, women) was “about ⅙”. For the same compound, the “Cmax compared with oral doses” value ([2]; 12 mg vaginal versus 1, 3, 6, 9, 12 mg oral, women) was “lower than any of the oral doses”, the “Release profile from pullulan capsules” value ([2]; 12 mg vaginal, steady state, 24 hour period, women) was “continuous release of active agents at a substantially constant rate” and the “Exposure compared with the 1 mg oral dose” value ([2]; 12 mg vaginal, women) was “only a fraction of the exposure of the ineffective 1 mg oral dose”. For the same compound, the “Maximum exposure relative to the 50 mg oral dose” value ([2]; 12 mg vaginal, women) was 1/100, the “Time to steady state concentration” value ([2]; women with uterine fibroids, 12 mg vaginal pullulan capsule once per day) was “one” and the “Cessation of menses, number of women” value ([3]; 12 mg vaginal once per day, 6 women) was 3 women. For the same compound, the Fibroid related condition ([3]; 12 mg vaginal, after only 4 weeks of treatment) was “significant improvements”, the “Reduction in menstrual bleeding, Pictorial Blood Loss Assessment Chart (PBAC)” value [3, 6] was “Statistical significance (p<0.05)” and the “Reduction in overall uterine fibroid symptoms, Uterine Fibroid Symptom Quality of Life Survey (UFSQOL)” value [3, 6] was “Statistical significance (p<0.05)”. The “Efficacy of the 1 mg oral dose” value ([4]; oral 1 mg) was “ineffective”, the Tolerability ([4]; oral 1, 3, 6, 9 and 12 mg for 10 weeks) was “all doses were well tolerated” and the “Lowest dose inducing reliable cessation of menses” value ([4]; oral, 10 weeks) was 3 mg. The “Fibroid size as share of the initial volume” value (uterine fibroids; escalated to 50 mg oral dose for an additional four months) was “approximately 25%”, the “Reduction in mean fibroid size” value (uterine fibroids; oral 25 mg dose) was about 50% and the “Fibroid symptoms as scored by UFSQOL” value (uterine fibroids; oral CDB-4124) was “symptom free”.
